Assay type in all cases: cell-based
The target of assay [1] is T1, Substance-P receptor (Homo sapiens, UniProt P25103). Nature of the assay: (§1) Inhibition of cloned human NK1 (Neurokinin 1) receptor, stably expressed in chinese hamster ovary (CHO) cells was determined.
The next assay concerns the target T2, Substance-K receptor (Homo sapiens, UniProt P21452).
T2 sequence (P21452 whole entry): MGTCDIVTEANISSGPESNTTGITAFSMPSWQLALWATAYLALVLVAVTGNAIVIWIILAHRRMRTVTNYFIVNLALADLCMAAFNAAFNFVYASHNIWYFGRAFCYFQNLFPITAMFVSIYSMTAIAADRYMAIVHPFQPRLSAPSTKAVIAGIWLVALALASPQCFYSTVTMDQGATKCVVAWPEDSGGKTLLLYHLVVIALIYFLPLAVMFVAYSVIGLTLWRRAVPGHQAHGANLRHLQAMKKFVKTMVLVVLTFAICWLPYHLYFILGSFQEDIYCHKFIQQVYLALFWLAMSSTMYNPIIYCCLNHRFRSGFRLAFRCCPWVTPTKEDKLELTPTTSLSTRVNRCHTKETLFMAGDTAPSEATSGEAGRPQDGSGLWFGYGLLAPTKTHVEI
Nature of the assay: Inhibition of cloned human NK2 (Neurokinin 2) receptor, stably expressed in chinese hamster ovary (CHO) cells was determined.

Assay [2] deals with T1, Substance-P receptor. The assay is described as §1. The note with it: concentration not given here.

Here are results for 19 compounds from ChEMBL document CHEMBL1130938, “L-tryptophan urea amides as NK1/NK2 dual antagonists” (Bioorg Med Chem Lett, 1998).

As usually defined, the IC50 is the concentration needed to halve the response being measured. Read a low IC50 as greater potency in that assay. Broadly, the inhibition is how much of the control response was suppressed.

The structures appear in SMILES notation. A value given as a limit tells only on which side of the number the result lay.

T1 sequence (P25103 whole entry): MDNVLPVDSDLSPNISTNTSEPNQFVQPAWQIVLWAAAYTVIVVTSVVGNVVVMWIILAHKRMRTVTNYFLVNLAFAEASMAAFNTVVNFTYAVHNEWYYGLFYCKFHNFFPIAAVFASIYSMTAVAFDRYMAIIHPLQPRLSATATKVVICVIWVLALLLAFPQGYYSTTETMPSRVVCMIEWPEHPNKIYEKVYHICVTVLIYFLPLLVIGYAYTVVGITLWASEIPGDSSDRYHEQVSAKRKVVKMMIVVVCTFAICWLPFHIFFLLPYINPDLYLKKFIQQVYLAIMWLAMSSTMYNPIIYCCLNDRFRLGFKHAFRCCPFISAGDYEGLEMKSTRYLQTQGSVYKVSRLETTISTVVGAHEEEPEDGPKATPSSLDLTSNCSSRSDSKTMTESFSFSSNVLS

Turning to `CN(Cc1ccccc1)C(=O)[C@H](Cc1c[nH]c2ccccc12)NC(=O)N1CCC2(C=Cc3ccccc32)CC1`, the IC50 against Substance-P receptor [1] was 68 nM; on Substance-K receptor, 18 nM.
Compound `O=C(Nc1ccccc1)[C@H](Cc1c[nH]c2ccccc12)NC(=O)N1CCC2(CCc3ccccc32)CC1` had an IC50 at Substance-K receptor of 2100 nM. In addition, at Substance-P receptor [2], the inhibition amounted to 39%.
Take `CSN1CC2(CCN(C(=O)N[C@@H](Cc3c[nH]c4ccccc34)C(=O)N(C)Cc3cc(C(F)(F)F)cc(C(F)(F)F)c3)CC2)c2ccccc21`: the figures for the 50% inhibitory concentration (IC50) at Substance-P receptor [1] and on Substance-K receptor were 1 nM and 4200 nM, respectively.
`CSN1CC2(CCN(C(=O)N[C@@H](Cc3c[nH]c4ccccc34)C(=O)OCc3cc(C(F)(F)F)cc(C(F)(F)F)c3)CC2)c2ccccc21`: the values for the half-maximal inhibitory concentration (IC50) at Substance-P receptor [1] and on Substance-K receptor were 0.58 nM and more than 1000 nM, respectively.
Taken in the same sequence, the figures for `CSN1CC2(CCN(C(=O)N[C@@H](Cc3c[nH]c4ccccc34)C(=O)OCc3ccccc3)CC2)c2ccccc21` were 23 nM and 4500 nM.
Taken in the same sequence, the figures for `CSN1CC2(CCN(C(=O)N[C@@H](CCc3ccccc3)C(=O)N(C)Cc3ccccc3)CC2)c2ccccc21` were 1100 nM and 166 nM.
Taken in the same sequence, the figures for `CSN1CC2(CCN(C(=O)N[C@@H](Cc3c[nH]c4ccccc34)C(=O)N(C)Cc3ccccc3)CC2)c2ccccc21` were 14 nM and 24 nM.
With `CCN(Cc1ccccc1)C(=O)[C@H](Cc1c[nH]c2ccccc12)NC(=O)N1CCC2(CCc3ccccc32)CC1`, the half-inhibitory concentration (IC50) against Substance-P receptor [1] came to 242 nM; against Substance-K receptor it was 139 nM.
Regarding `CC(=O)NC1(c2ccccc2)CCN(C(=O)N[C@@H](Cc2c[nH]c3ccccc23)C(=O)N(C)Cc2ccccc2)CC1`, the half-inhibitory concentration (IC50) at Substance-P receptor [1] amounted to 77 nM; on Substance-K receptor, 928 nM.
Taken in the same sequence, the figures for `CSN1CC2(CCN(C(=O)N[C@@H](COCc3ccccc3)C(=O)N(C)Cc3ccccc3)CC2)c2ccccc21` were 480 nM and 258 nM.
Taken in the same sequence, the figures for `CSN1CC2(CCN(C(=O)N[C@@H](Cc3c[nH]c4ccccc34)C(=O)N(C)Cc3cc(C)cc(C)c3)CC2)c2ccccc21` were 10 nM and 1400 nM.
Taken in the same sequence, the figures for `CSN1CC2(CCN(C(=O)N[C@H](Cc3c[nH]c4ccccc34)C(=O)N(C)Cc3ccccc3)CC2)c2ccccc21` were 164 nM and 577 nM.
`CN(Cc1ccccc1)C(=O)[C@H](Cc1c[nH]c2ccccc12)NC(=O)N1CCC2(CCc3ccccc32)CC1`: the IC50 against Substance-P receptor [1] came to 56 nM; against Substance-K receptor, 27 nM.
Taken in the same sequence, the figures for `CC(=O)NC1(c2ccccc2)CCN(CC[C@H](CN(C)C(=O)c2ccccc2)c2ccc(Cl)c(Cl)c2)CC1` [SAREDUTANT] were 800 nM and 0.13 nM.
Consider `O=C(NCc1ccccc1)[C@H](Cc1c[nH]c2ccccc12)NC(=O)N1CCC2(CCc3ccccc32)CC1`, for which the values for the IC50 against Substance-P receptor [1] and at Substance-K receptor were 227 nM and 14 nM, respectively.
As to `CC(=O)N[C@@H](Cc1c[nH]c2ccccc12)C(=O)OCc1cc(C(F)(F)F)cc(C(F)(F)F)c1` [L-732138], the concentration for half-maximal inhibition (IC50) against Substance-K receptor was more than 5000 nM.
`CNC(=O)N[C@@H](Cc1c[nH]c2ccccc12)C(=O)OCc1cc(C)cc(C)c1` showed a half-maximal inhibitory concentration (IC50) against Substance-K receptor of more than 5000 nM.
Turning to `O=C(NCCc1ccccc1)[C@H](Cc1c[nH]c2ccccc12)NC(=O)N1CCC2(CCc3ccccc32)CC1`, the 50% inhibitory concentration (IC50) at Substance-P receptor [1] came to 332 nM; against Substance-K receptor, 211 nM.
Taken in the same sequence, the figures for `Cc1cc(C)cc(CN(C)C(=O)[C@H](Cc2c[nH]c3ccccc23)NC(=O)c2ccccc2)c1` were more than 1100 nM and more than 5000 nM.
